Entries after “also recorded” stand apart in the source; their conditions may differ.
Assays:
[1] = tested on: S. cerevisiae; assay: Two-color cDNA microarray expression profiling of mutant or compound-treated yeast cultures (300-experiment compendium) with hierarchical clustering; format: cell-based; conditions: for mutant in the affected pathway whose profile the profile caused by the inhibitory compound resembles / DNA-damage/S-phase arrest inducible RNR2, RNR3 and RNR4 transcripts: FIG. 9B; for clustering of treatment profile with profiles from cell wall related mutants gas1Δ, spf1Δ, and amp1Δ: FIG. 11A
Procedure: Experimental (mutant or chemically treated) cultures were grown, harvested and processed in parallel with corresponding wild-type or control cultures. A complete list of experimental conditions is provided, below, in Table 2.
Several colonies of similar size were picked from freshly-streaked YAPD agar plates into liquid Synthetic Complete medium (SC) with 2% glucose, grown overnight at 30° C. to mid-log phase, diluted to 0.4-1.0×10^6 cells/mL, and grown an addition 5-7 hours until reaching 0.4-1.0[…], at which point they were pelleted by centrifugation from 2 minutes at room temperature and frozen in liquid nitrogen. The final optical densities of experimental and control cultures were matched as closely as possible. For experiments involving treatments with chemical compounds (including doxycycline), compounds were added at the beginning of the 5-7 hour final groth phase, with equal amounts of solvent or doxycyline added to control cultures as appropriate. Total RNA was prepared by phenol:chloroform extraction followed by ethanol precipitation as described previously (see, e.g., Marton et al., 1998, Nat. Med. 4:1293-1301) except that the step vortexing with glass beads was replaced with a 10 minute incubation at 65° C. followed by 1 minute of vortexing. Poly-A+ RNA purification, cDNA labeling, microarray production, and microarray hybridization and washing were also done as previously described (e.g., in Marton et al., supra) with measurements taken in fluor-reversed pairs. Arrays were scanned, images were quantitated and physical artifacts such as dust and salt residue were edited as described previously (see, e.g., Marton et aL, supra). Resulting data files were evaluated by a series of quality-control criteria relating, first, to the image itself and, second, to known biological artifacts. For purposes of illustrating the impact of biases, experiments flagged as containing biological artifacts were noted by were not excluded from subsequent data analysis steps.
Clustering analysis of the perturbation response profiles was done as described, below, in Section 5.2.4. Specifically, the analysis comprised two steps. First, profiles and transcripts were selected from a data matrix and, second, experiments and responsive genes were grouped by agglomerative hierarchical clustering (see Hartigan, 1975, Clustering Algorithms, John Wiley & Sons, New York) where the similarity measure is the error-weighted correlation coefficient provided in Equation 11 below. Genes and experiments (i.e., columns and rows, respectively, of the data matrix) were then re-ordered according to the resulting clustering similarity trees. A statistical significance (i.e., a P-value) was also calculated for each bifurcation in the resulting cluster tree using the methods for determining statistical significance of cluster groups which are also described, below, in Section 5.2.4.
Using a two-color cDNA microarray hybridization assay (see, Schena et al., 1995, Science 270:467-470), three hundred expression profiles were generated in S. cerevisiae in which transcript levels of a mutant or compound-treated culture were compared to that of a wild-type or mock-treated culture. 276 deletion mutants, 11 tetracycline-regulatable alleles of essential genes (Gari et al., 1997, Yeast 13:837-848) and 13 well-characterized compounds were profile. Sixty-nine of the 276 deletions were of uncharacterized open reading frames (ORFs). To allow direct comparison of the behavior of all genes in response to all mutations and treatments, experiments were performed under a single condition: cells were grown at 30° C. in liquid synthetic complete SC) medium plus 2% glucose to mid-log phase, with the final optical densities of the experimental and control cultures closely matched (see Section 6.1 above). […]

[2] = biological target: T1, Erg2p, the sterol C-8 isomerase (Saccharomyces cerevisiae, UniProt P32352); assay: Sterol profiles by gas chromatography of the nonsaponifiable fraction; format: cell-based, yeast; conditions: dyclonine-treated cells, FIG. 11F
T1 construct: endogenous in cells; host or cells: S. cerevisiae, Saccharomyces Genome Deletion Consortium strain background
Procedure: Sterols were identified using pure standards and on the basis of relative retention times. Nonsaponifiables were isolated from yeast as previously described (Molzahn and Woods, 1972, J Gen. Microbiol. 72:339-348). Gas chromatography (GC) analyses of the nonsaponifiable fraction were analyzed on a HP5890 series II GC equipped with the HP chemstation software. The capillary column (DB5) was 15 m×0.25 mm i.d., 0.2 μm film thickness and was programmed from 195 fC to 300 fC (195 fC for 3 min., 5.5 fC/min. to 300 fC then held for 10 min.). The linear velocity was 30 cm/s using nitrogen and the carrier gas and all injections were run in the splitless mode.

[3] = tested on: wild type yeast cells; conditions: levels that give maximal repression of promoter activity (10 micrograms/nil); cited from earlier work
[4] = biological target: yeast Erg2 enzyme (Saccharomyces cerevisiae, UniProt P32352); conditions: cited from earlier work
yeast Erg2 enzyme, sequence (P32352 whole entry): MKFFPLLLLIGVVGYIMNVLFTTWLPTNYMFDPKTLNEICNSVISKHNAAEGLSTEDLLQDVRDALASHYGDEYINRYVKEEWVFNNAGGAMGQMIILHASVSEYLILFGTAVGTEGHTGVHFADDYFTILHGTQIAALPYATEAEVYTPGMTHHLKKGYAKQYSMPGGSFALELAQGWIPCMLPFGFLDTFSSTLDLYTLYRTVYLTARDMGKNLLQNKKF

T1 sequence (P32352 whole entry): as above

CC[C@H](C)C(=O)O[C@H]1C[C@@H](C)C=C2C=C[C@H](C)[C@H](CC[C@@H]3C[C@@H](O)CC(=O)O3)[C@H]21 [lovastatin]
correlation of transcript profile of compound treatment with profile of reduced expression of the target gene ([1]; FIG. 9E): correlates highly with the profile produced by reducing expression of HMG2

C[C@@H]1C[C@@H]([C@H](O)CC2CC(=O)NC(=O)C2)C(=O)[C@@H](C)C1 [cycloheximide]
mutant in the affected pathway whose profile the profile caused by the inhibitory compound resembles [1]: yef3 | clustering of treatment profile with ribosome subunit deletion profiles ([1]; all regulations greater than 1.5-fold masked, small regulations used as basis of clustering): this profile cluster gains additional translation-related experiments

N[C@H]1C(O)O[C@H](CO)[C@@H](O)[C@@H]1O (stereo partly shown) [glucosamine]
mutant in the affected pathway whose profile the profile caused by the inhibitory compound resembles [1]: gas1 | clustering of treatment profile with profiles from cell wall related mutants gas1Δ, spf1Δ, and amp1Δ [1]: form a discrete cluster together with

CCCCOc1ccc(C(=O)CCN2CCCCC2)cc1 [dyclonine]
sterol accumulating in treated cells and enzyme inferred to be inhibited (GC analysis) [2]: buildup of fecosterol, indicating inhibition of Erg2p | sterol content of treated cells (GC analysis) [2]: abnormal | expression profile of drug-treated yeast compared with the compendium profiles ([1]; six hour treatment with 0.063% dyclonine (FIG. 11E)): correlates most closely with the response profile obtained from a cell line in which the erg2p gene has been “knocked out.”; also recorded: most closely resembled profiles resulting from perturbation of the ergosterol pathway

COS(C)(=O)=O [MMS]
DNA-damage/S-phase arrest inducible RNR2, RNR3 and RNR4 transcripts [1]: induced

NC(=O)NO [hydroxyurea]
DNA-damage/S-phase arrest inducible RNR2, RNR3 and RNR4 transcripts [1]: induced | mutant in the affected pathway whose profile the profile caused by the inhibitory compound resembles [1]: rnr1

O=CC[C@@H](O)[C@H](O)[C@H](O)CO [2-deoxy-D-glucose]
mutant in the affected pathway whose profile the profile caused by the inhibitory compound resembles [1]: gas1 | clustering of treatment profile with profiles from cell wall related mutants gas1Δ, spf1Δ, and amp1Δ [1]: form a discrete cluster together with

tunicamycin
mutant in the affected pathway whose profile the profile caused by the inhibitory compound resembles [1]: gas1 | clustering of treatment profile with profiles from cell wall related mutants gas1Δ, spf1Δ, and amp1Δ [1]: form a discrete cluster together with

C/C=C1\NC(=O)[C@H]2CSSCC/C=C/[C@H](CC(=O)N[C@H](C(C)C)C(=O)N2)OC(=O)[C@H](C(C)C)NC1=O [FR901,228]
mutant in the affected pathway whose profile the profile caused by the inhibitory compound resembles [1]: rpd3

CCC(C)n1ncn(-c2ccc(N3CCN(c4ccc(OCC5COC(Cn6cncn6)(c6ccc(Cl)cc6Cl)O5)cc4)CC3)cc2)c1=O (stereo not shown) [itraconzaole]
mutant in the affected pathway whose profile the profile caused by the inhibitory compound resembles [1]: erg/11

C[C@H]1c2cccc(O)c2C(=O)C2=C(O)[C@]3(O)C(=O)C(C(N)=O)=C(O)[C@@H](N(C)C)[C@@H]3[C@@H](O)[C@@H]21 [doxycycline]
effect on the growth rate on wild type yeast cells [3]: no significant effect

O=C(CCCN1CCC(O)(c2ccc(Cl)cc2)CC1)c1ccc(F)cc1 [haloperidol]
binding and inhibition of the yeast Erg2 enzyme [4]: binds and inhibits

From patent US8412460B2, “Methods and systems for characterizing a cellular constituent using response profiles” (priority 2000, dated 2013)
